Test results published in patent US20220389437A1, “METHODS OF IN PLANTA TRAN[…] AXILLARY MERISTEM” (SYNGENTA CROP PROTECTION AG, priority 2019, published 2022).

System: non-transgenic plants (soybean seedlings), wounded axillary areas
Assay: Glyphosate top selection dose finding: suppression of axillary meristem regeneration
Assay type: in vivo
Conditions: 10, 25, 50, 75, 100 or 200 uM applied on the wounded axillary areas, non-lethal but sufficient to suppress regeneration within 2 weeks
From the text: 1) Germination: Soybean seeds were sown in 2.5 inch pots, two seeds in each pot. 4-7 day old seedlings grown from the seeds were used for cotyledon axillary meristem transformation.
2) Wound axillary meristems: The axillary meristems located in the axil of cotyledons were completely removed. The stem cells located in the base of the axillary meristem were transformed using Agrobacterium as described below. To break the dormancy of the axillary meristem, the primary shoot meristem was removed at the same time, or 3-7 days' later.
5) Selection: To determine the glyphosate concentrations effectively suppressing axillary meristem regeneration in top selection, non-transgenic plants were used and 10 uM to 200 uM glyphosate (specifically 10, 25, 50, 75, 100, or 200 uM glyphosate) was applied on the wounded axillary areas.

O=C(O)CNCP(=O)(O)O [glyphosate]
glyphosate concentrations effectively suppressing axillary meristem regeneration in top selection: 75 to 200 µM
